US12102615B2 (THE TEXAS A&M UNIVERSITY SYSTEM, priority 2018, dated 2024)
Numbered stars: 1 amine (or outer) side, 2 acyl side, 3 side chain; on linkers, the order of the positions; unused ones are H or OH. Square brackets hold non-standard residues; d marks the D form. Peptide text beside a SMILES is read from it. dTyr(βR-OH) = N[C@@H](C(=O)O)[C@H](O)c1ccc(O)cc1; X1 = CCCCCCCCCCCCNCC[C@H](CC(=O)[*:2])N[*:1]; Asn(3S-OH) = NC(=O)[C@@H](O)[C@H](N)C(=O)O; dDab = NCC[C@@H](N)C(=O)O

What was measured:
[1] = test system: Candida albicans ATCC 3147; format: cell-based; details: 24 hours, 35° C., listed as dihydrosphingosine
Method: (§1) MIC assays were performed in duplicate as previously described following a modified version of the CLSI M27-A3 methods.
(§2) Minimum inhibitory concentration (MIC) susceptibility testing was performed following a modified version, as previously reported, of the CLSI M27-A3 methods for the susceptibility testing of yeasts. Incubation temperature was 35° C. and the inoculum size was 0.5-2.5×10^3 colony-forming units (CFU)/mL for yeasts. MICs were performed to determine the bioactivity of each new OF-Δxyl analogue (Table 3).

[2] = test system: S. cerevisiae DGY6 haploid BY4741; format: cell-based; details: Saccharomyces cerevisiae DGY6 haploid BY4741; 24 hours, 35° C.
Method: as §1, §2

[3] = test system: Candida glabrata ATCC 2001; assay: Minimum inhibitory concentration (MIC) assay, modified CLSI M27-A3; format: cell-based; details: 24 hours, 35° C.
Method: as §1, §2

F-actin [4] = target: T1, F-actin (Oryctolagus cuniculus, UniProt P68135); assay: Actin co-sedimentation assay; format: binding, rabbit; parameters: Purified rabbit skeletal muscle filamentous actin (AKF99); purchased Cytoskeleton Inc. (Denver, CO) AKF99; host or cells: rabbit skeletal muscle
F-actin [5] = target: T1, F-actin; assay: Pyrene labeled actin depolymerization assay; format: biochemical; parameters: purchased Cytoskeleton, Inc. (Denver, CO) BK003; details: 5 μM
Method: (§3) Actin polymerization and depolymerization assays were performed using the Actin polymerization biochem kit (#BK003; Cytoskeleton, Inc. Denver, CO) following the manufacturer's instructions with some modifications. Briefly, for the polymerization assay, G-actin stock solution was made at 0.2 mg/mL instead of 0.4 mg/mL. For the depolymerization assay, F-actin stock solution was diluted 9-fold instead of 5-fold. […] The experiments were done in duplicate.

actin = target: T2, actin (Oryctolagus cuniculus, UniProt P68135); assay: Pyrene labeled actin polymerization assay; format: biochemical; details: 5 μM; approximately one hour after incubation in the polymerization buffer
T2 construct: purchased Cytoskeleton, Inc. (Denver, CO) BK003
Method: as §3

Row | SMILES | MIC [1] [µg/mL] | MIC [2] [µg/mL] | MIC [3] [µg/mL] | Kd (F-actin [4]) [µM] | fold lower saturation of binding ratio than native occidiofungin (F-actin [4]; versus native occidiofungin) [fold] | effect on polymerization or depolymerization of actin (F-actin [5]) | pyrene fluorescent reading following incubation in depolymerization buffer (F-actin [5]; no drug control at 2,500 AU) | pyrene fluorescence reading, plateau in polymerization buffer (actin) | fold lower binding affinity to actin than native compound (F-actin [4]; versus native occidiofungin) [fold]
1 | CCCCCCCCCCCCCCCC(O)C(CO)NCC[C@@H]1CC(=O)N[C@H](CO)C(=O)N[C@H]([C@H](O)c2ccc(O)cc2)C(=O)N[C@H](CCN)C(=O)NCC(=O)N[C@@H](CC(N)=O)C(=O)N[C@@H](CO)C(=O)N[C@@H]([C@H](O)C(N)=O)C(=O)N1 (mixture of isomers) | 16 | 2 | 8 | 0.025 | 13.5 | did not interfere with polymerization or depolymerization of actin | 2,500 AU | ~21,000 AU | –
2 | CCCCCCCCCCCCNCC[C@@H]1CC(=O)N[C@H](CO)C(=O)N[C@H]([C@H](O)c2ccc(O)cc2)C(=O)N[C@H](CCN)C(=O)NCC(=O)N[C@@H](CC(N)=O)C(=O)N[C@@H](CO)C(=O)N[C@@H]([C@H](O)C(N)=O)C(=O)N1 [Dodecylamine containing OF-Δxyl analogue] (cyclo(GNS[Asn(3S-OH)][X1][dS][dTyr(βR-OH)][dDab])) | – | >4 | – | 4.2 | – | – | – | – | ~4
